Experimental data taken from patent publication US7449463B2, “Morpholinyl containing benzimidazoles as inhibitors of respiratory syncytial virus replication” (Tibotec Pharmaceuticals Ltd., priority 2003, dated 2008).

Tested on: Respiratory Syncytial Virus
Experiment: microbe, parasite or virus in culture
Assay type: cell-based
Details: RSV-infected HeLa cells, MTT readout seven days after infection; −log of EC50 in molar units
Text: In vitro Screening for Activity against Respiratory Syncytial Virus.
The percent protection against cytopathology caused by viruses (antiviral activity or EC50) achieved by tested compounds and their cytotoxicity (CC50) are both calculated from dose-response curves. The selectivity of the antiviral effect is represented by the selectivity index (SI), calculated by dividing the CC50 (cytotoxic dose for 50% of the cells) by the EC50 (antiviral activity for 50% of the cells).
Automated tetrazolium-based colorimetric assays were used for determination of EC50 and CC50 of test compounds. Flat-bottom, 96-well plastic microtiter trays were filled with 180 μl of Eagle's Basal Medium, supplemented with 5% FCS (0% for FLU) and 20 mM Hepes buffer. Subsequently, stock solutions (7.8× final test concentration) of compounds were added in 45 μl volumes to a series of triplicate wells so as to allow simultaneous evaluation of their effects on virus- and mock-infected cells. Five five-fold dilutions were made directly in the microtiter trays using a robot system. Untreated virus controls, and HeLa cell controls were included in each test. Approximately 100 TCID50 of Respiratory Syncytial Virus was added to two of the three rows in a volume of 50 μl. The same volume of medium was added to the third row to measure the cytotoxicity of the compounds at the same concentrations as those used to measure the antiviral activity. After two hours of incubation, a suspension (4×10^5 cells/ml) of HeLa cells was added to all wells in a volume of 50 μl. The cultures were incubated at 37° C. in a 5% CO2 atmosphere. Seven days after infection the cytotoxicity and the antiviral activity was examined spectrophotometrically. To each well of the microtiter tray, 25 μl of a solution of MTT (3-(4,5-dimethylthiazol-2-yl)-2,5-diphenyltetrazolium bromide) was added. The trays were further incubated at 37° C. for 2 hours, after which the medium was removed from each cup. Solubilization of the formazan crystals was achieved by adding 100 μl 2-propanol. Complete dissolution of the formazan crystals were obtained after the trays have been placed on a plate shaker for 10 min. Finally, the absorbances were read in an eight-channel computer-controlled photometer (Multiskan MCC, Flow Laboratories) at two wavelengths (540 and 690 nm). The absorbance measured at 690 nm was automatically subtracted from the absorbance at 540 nm, so as to eliminate the effects of non-specific absorption.

| Structure (SMILES) | Activity |
| --- | --- |
| Cc1ccc(CCCCO)c(NCc2ccc3nc(NCCCN4CCOCC4)n(Cc4nc(C)ccc4O)c3c2)c1 [Compound 20] | 9.2 |
| Cc1ccc(O)c(Cn2c(NCCCN3CCOCC3)nc3ccc(CNc4ccc(S(N)(=O)=O)cc4)cc32)n1 [Compound 37] | 8.5 |
| Cc1ccc(O)c(Cn2c(NCCCN3CCOCC3)nc3ccc(CNc4ccc(C(N)=O)cc4)cc32)n1 [Compound 38] | 8.5 |
| C#Cc1cccc(NCc2ccc3nc(NCCCN4CCOCC4)n(Cc4nc(C)ccc4O)c3c2)c1 [Compound 30] | 8.6 |
| Cc1ccc(O)c(Cn2c(NCCCN3CCOCC3)nc3ccc(CNc4ccccc4CCC(N)=O)cc32)n1 [Compound 33] | 8.6 |
| Cc1ccc(O)c(Cn2c(NCCCN3CCOCC3)nc3cc(CO)ccc32)n1 [Compound 53] | 5.6 |
| COc1ccc(CCO)c(NCc2ccc3nc(NCCCN4CCOCC4)n(Cc4nc(C)ccc4O)c3c2)c1 [Compound 9] | 9.6 |
| Cc1ccc(O)c(Cn2c(NCCCN3C[C@@H](C)O[C@@H](C)C3)nc3ccc(CO)cc32)n1 [Compound 175] | 6.2 |
| Cc1ccc(O)c(Cn2c(NCCCN3CCOCC3)nc3ccc(CNc4cccc(CCO)c4)cc32)n1 [Compound 47] | 7.9 |
| Cc1ccc(O)c(Cn2c(NCCCN3CCOCC3)nc3ccc(CN(c4ccccc4)c4ccc(O)cc4)cc32)n1 [Compound 106] | 8.1 |
| COCCN(Cc1ccc2nc(NCCCN3CCOCC3)n(Cc3nc(C)ccc3O)c2c1)c1cc(C)cc(C)c1 [Compound 82] | 8.6 |
| Cc1ccc(O)c(Cn2c(NCCCN3CCOCC3)nc3ccc(CN(CCCO)c4cccc(Br)c4)cc32)n1 [Compound 95] | 8.6 |
| Cc1ccc(O)c(Cn2c(NC3CCN(CCN4CCOCC4)CC3)nc3ccc(CO)cc32)n1 [Compound 168] | 6.5 |
| Cc1ccc(O)c(Cn2c(NCCCN3CCOCC3)nc3ccc(CNc4cc(C#N)ccc4CCO)cc32)n1 [Compound 1] | 10 |
| Cc1cccc(N(CCN(C)C)Cc2ccc3nc(NCCCN4CCOCC4)n(Cc4nc(C)ccc4O)c3c2)c1 [Compound 100] | 8.4 |
| C#Cc1ccc(CCO)c(NCc2ccc3nc(NCCCN4CCOCC4)n(Cc4nc(C)ccc4O)c3c2)c1 [Compound 10] | 9.6 |
| C=Cc1ccc(CCO)c(NCc2ccc3nc(NCCCN4CCOCC4)n(Cc4nc(C)ccc4O)c3c2)c1 [Compound 6] | >9.6 |
| Cc1ccc(CCO)c(NCc2ccc3nc(NCCCN4CCOCC4)n(Cc4nc(C)ccc4O)c3c2)c1 [Compound 7] | 9.6 |

| Structure (SMILES) | Activity |
| --- | --- |
| Cc1ccc(O)c(Cn2c(NCCCN3CCOCC3)nc3ccc(CNc4cccc(OC(F)(F)F)c4)cc32)n1 [Compound 36] | 8.5 |
| Cc1ccc(O)c(Cn2c(NCCCN3CCSCC3)nc3ccc(CO)cc32)n1 [Compound 182] | 7.1 |
| Cc1ccc(O)c(Cn2c(NCCCN3CCOCC3)nc3ccc(CNc4ccccc4C(N)=O)cc32)n1 [Compound 45] | 7.9 |
| Cc1ccc(O)c(Cn2c(NC3CCN(CCN4CCOCC4)CC3)nc3cc(/C=C/c4ccccc4)ccc32)n1 [Compound 167] | 6.7 |
| Cc1cc(C)cc(N(CCCO)Cc2ccc3nc(NCCCN4CCOCC4)n(Cc4nc(C)ccc4O)c3c2)c1 [Compound 63] | 9.3 |
| COc1ccc(CCCO)c(NCc2ccc3nc(NCCCN4CCOCC4)n(Cc4nc(C)ccc4O)c3c2)c1 [Compound 14] | 9.4 |
| Cc1cc(C)cc(N(Cc2ccc3nc(NCCCN4CCOCC4)n(Cc4nc(C)ccc4O)c3c2)Cc2c[nH]cn2)c1 [Compound 81] | 8.9 |
| Cc1ccc(O)c(Cn2c(NCCCN3CCOCC3)nc3ccc(CNc4cccc(Br)c4)cc32)n1 [Compound 26] | 8.7 |
| Cc1cc(C)cc(N(CCCCCO)Cc2ccc3nc(NCCCN4CCOCC4)n(Cc4nc(C)ccc4O)c3c2)c1 [Compound 64] | 9.3 |
| Cc1ccc(O)c(Cn2c(NCCCN3CCOCC3)nc3ccc(CNc4cc(C(N)=O)ccc4CCO)cc32)n1 [Compound 44] | 8.1 |
| Cc1ccc(O)c(Cn2c(NCCCN3CCOCC3)nc3ccc(CN(CCO)c4cccc(Br)c4)cc32)n1 [Compound 85] | 9.3 |
| Cc1ccc(O)c(Cn2c(NCCCN3CCOCC3)nc3ccc(CN(CCO)c4ccc(C#N)cc4)cc32)n1 [Compound 88] | 9.1 |
| Cc1ccc(O)c(Cn2c(NCCCN3CCOCC3)nc3ccc(CNc4cccc(Cl)c4)cc32)n1 [Compound 31] | 8.6 |
| Cc1ccc(C=CCO)c(NCc2ccc3nc(NCCCN4CCOCC4)n(Cc4nc(C)ccc4O)c3c2)c1 [Compound 19] | 9.3 |
| Cc1ccc(O)c(Cn2c(NCCCN3CCOCC3)nc3ccc(CNc4cc(C(C)C)ccc4CCO)cc32)n1 [Compound 17] | 9.3 |
| Cc1ccc(O)c(Cn2c(NCCCN3CCOCC3)nc3ccc(CNc4ccccc4CO)cc32)n1 [Compound 29] | 8.6 |
| Cc1cccc(N(CCCO)Cc2ccc3nc(NCCCN4CCOCC4)n(Cc4nc(C)ccc4O)c3c2)c1 [Compound 93] | 8.7 |

Same assay, conditions: pEC50 (−log of EC50 when expressed in molar units), protection against RSV cytopathology

| Structure (SMILES) | Activity |
| --- | --- |
| Cn1cnc2c(Cn3c(NCCCN4CCOCC4)nc4ccc(CNc5cc(Br)ccc5CCCO)cc43)cccc21 [Compound 232] | 8.4 |
| Cc1cccc(NCc2ccc3nc(NCCCN4CCOCC4)n(Cc4nc(C)c(C)nc4C)c3c2)c1CO [Compound 285] | 7.1 |
| COc1ccc(C)nc1Cn1c(NCCCN2CCOCC2)nc2ccc(CNc3ccccc3CO)cc21 [Compound 279] | 7.1 |
| COc1ccc(C)nc1Cn1c(NCCCN2CCOCC2)nc2ccc(CN(CCCC(N)=O)c3cc(C)cc(C)c3)cc21 [Compound 210, -{(3,5-Dimethyl-phenyl)-[3-(3-methoxy-6-methyl-pyridin-2-ylmethyl)-2-(3-morpholin-4-yl-propylamino)-3H-benzoimidazol-5-ylmethyl]-amino}-butyramide] | 9 |
| C#Cc1cccc(NCc2ccc3nc(NCCCN4CCOCC4)n(Cc4nc(C)c(C)nc4C)c3c2)c1 [Compound 290] | 7 |
| Cc1cc(C)cc(N(CCCC(N)=O)Cc2ccc3nc(NCCCN4CCOCC4)n(Cc4ccc(F)cc4)c3c2)c1 [Compound 315] | 6.5 |
| Cc1ccc(NCc2ccc3nc(NCCCN4CCOCC4)n(Cc4nc(C)c(C)nc4C)c3c2)c(CO)c1 [Compound 284] | 7.1 |
| Cc1cc(C)cc(N(CCO)Cc2ccc3nc(NCCCN4CCOCC4)n(Cc4cccc(Br)n4)c3c2)c1.Cl [Compound 278] | 7.1 |
| Cc1nc2c(nc1C)C(n1c(NCCCN3CCOCC3)nc3cc(CNc4ccccc4C(N)=O)ccc31)CCC2 (centres unmarked) [Compound 340] | 5.3 |
| Cc1cccc(Cn2c(NCCCN3CCOCC3)nc3ccc(CNc4ccccc4CCO)cc32)n1 [Compound 333] | 5.5 |
| Cc1ccc(C)c(NCc2ccc3c(c2)nc(NCCCN2CCOCC2)n3C2CCCc3nc(C)c(C)nc32)c1 (centres unmarked) [Compound 276] | 7.2 |
| COc1ccc(C)nc1Cn1c(NCCCN2CCOCC2)nc2ccc(CNc3ccccc3CCCO)cc21 [Compound 239] | 7.9 |
| COc1ccc(C)nc1Cn1c(NCCCN2CCOCC2)nc2ccc(CNc3cccc(C)c3CO)cc21 [Compound 298] | 6.9 |
| Cc1cccc(NCc2ccc3nc(NCCCN4CCOCC4)n(Cc4nc(C)c(C)nc4C)c3c2)c1 [Compound 283] | 7.1 |
| Cc1ccc(CCCO)c(NCc2ccc3c(c2)nc(NCCCN2CCOCC2)n3Cc2cccc3c2ncn3C)c1 [Compound 328] | 5.8 |
| Cc1cc(C)cc(N(CCO)Cc2ccc3nc(NCCCN4CCOCC4)n(Cc4cccc(C)n4)c3c2)c1 [Compound 281] | 7.1 |
| Cc1cccc(Cn2c(NCCCN3CCOCC3)nc3ccc(CNc4ccccc4CCN4CCOCC4)cc32)n1 [Compound 345] | 5 |
| Cc1nc2c(nc1C)C(n1c(NCCCN3CCOCC3)nc3cc(CNc4cc(Cl)cc(Cl)c4)ccc31)CCC2 (centres unmarked) [Compound 331] | 5.7 |
| Cc1cccc(Cn2c(NCCCN3CCOCC3)nc3ccc(CNc4cccc(C)c4CO)cc32)n1 [Compound 347] | 4.9 |
| Cc1cccc(Cn2c(NCCCN3CCOCC3)nc3ccc(CNc4cccc(C)c4CCO)cc32)n1 [Compound 335] | 5.5 |
| COc1ccc(C)nc1Cn1c(NCCCN2CCOCC2)nc2ccc(CNc3ccc(C)cc3CO)cc21 [Compound 280] | 7.1 |
| COc1ccc(C)nc1Cn1c(NCCCN2CCOCC2)nc2ccc(CNc3cccc(Br)c3)cc21 [Compound 297] | 6.9 |
| Cc1nc(C)c(Cn2c(NCCCN3CCOCC3)nc3ccc(CNc4ccc(C(N)=O)cc4)cc32)nc1C [Compound 291] | 7 |
| COc1ccc(C)nc1Cn1c(NCCCN2CCOCC2)nc2cc(CNc3cc(C)ccc3CCCO)ccc21 [Compound 348] | 4.8 |
